The inhibition is the relative decrease from the control value, in per cent. Broadly, the pIC50 is −log10 of the IC50, conventionally taken in molar units. In general, IC50 refers to the concentration that gives 50% inhibition.

The test addresses T1, PDGF-receptor beta enzyme comprising the tyrosine kinase domain (Homo sapiens, UniProt P09619).
T1 construct: from amino acid 545 to 1106 of GenBank Access NO: AAA36427
Kind of test: Inhibition of PDGF-receptor kinase activity (cell-free, PLC1 peptide, 33P Flashplate). The format is biochemical. The note with it: for inhibition at 10 µM / pIC50: PDGF-R kinase activity; for inhibition at 10 µM: compound at 10 uM, read-out: Percent Inhibition @ 10 uM; for pIC50: read-out: IC50; for IC50: read-out: IC50 (μM) on PDGF-R kinase activity. The procedure, abridged: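 Recombinant kinase domain (aa 545–1106) phosphorylated a biotinylated PLC1 peptide with 5 μM ATP plus 33P-γ-ATP, in Tris pH 8, MgCl2, Na3VO4 and 1 mM DTT, for 60 min at 30 °C. Retained 33P was counted after washing. IC50 is the concentration halving activity versus no-inhibitor reactions.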

pIC50: −log10 of the molar value. Like-named read-outs stand apart in the source and are kept apart here.

T1 sequence (P09619 545-1106): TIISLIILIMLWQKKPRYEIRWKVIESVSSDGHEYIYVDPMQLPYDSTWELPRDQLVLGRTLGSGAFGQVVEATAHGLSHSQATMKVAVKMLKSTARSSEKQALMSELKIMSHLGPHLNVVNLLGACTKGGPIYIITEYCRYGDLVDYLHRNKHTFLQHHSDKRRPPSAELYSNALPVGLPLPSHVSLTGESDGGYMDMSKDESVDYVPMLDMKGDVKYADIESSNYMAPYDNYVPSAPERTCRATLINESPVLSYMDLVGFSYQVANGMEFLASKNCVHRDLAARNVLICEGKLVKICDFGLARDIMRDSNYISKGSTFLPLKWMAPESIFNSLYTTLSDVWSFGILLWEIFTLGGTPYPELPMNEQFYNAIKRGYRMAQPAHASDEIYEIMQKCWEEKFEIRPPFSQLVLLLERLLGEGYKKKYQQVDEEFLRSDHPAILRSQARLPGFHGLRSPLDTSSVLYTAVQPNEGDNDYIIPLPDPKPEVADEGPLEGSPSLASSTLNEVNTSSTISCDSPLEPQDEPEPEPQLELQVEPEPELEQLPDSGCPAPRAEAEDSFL

Turning to `COc1cccc(Nc2n[nH]c3c2Cc2c-3cc(OC)c3oc(C)nc23)c1` [Compound 560, (4-Methoxy-2-methyl-6,9-dihydro-3-oxa-1,6,7-triaza-cyclopenta[b]-as-indacen-8-yl)-(3-methoxy-phenyl)-amine], the inhibition at 10 µM is 102% and the pIC50 was 7.61.
Regarding `COc1cc2c(cc1OC)-c1n[nH]c(Nc3ccccn3)c1C2` [Compound 562, (6,7-Dimethoxy-2,4-dihydro-indeno[1,2-c]pyrazol-3-yl)-pyridin-2-yl-amine], the inhibition at 10 µM turned out to be 93.5% and the pIC50 is 7.08.
On the same counts, the results for `COc1cc2c(cc1OC)-c1n[nH]c(NCc3ccccn3)c1C2` [Compound 563, (6,7-Dimethoxy-2,4-dihydro-indeno[1,2-c]pyrazol-3-yl)-pyridin-2-ylmethyl-amine] are 89% and 5.84.
For `COc1cc2c(cc1OC)-c1n[nH]c(NCc3cccnc3)c1C2` [Compound 564, (6,7-Dimethoxy-2,4-dihydro-indeno[1,2-c]pyrazol-3-yl)-pyridin-3-ylmethyl-amine], the inhibition at 10 µM worked out at 99.5% and the pIC50 was 6.05.
Regarding `COc1cc2c(cc1OC)-c1n[nH]c(Nc3cccc4c3OC(F)(F)O4)c1C2` [Compound 565, (2,2-Difluoro-benzo[1,3]dioxol-4-yl)-(6,7-dimethoxy-2,4-dihydro-indeno[1,2-c]pyrazol-3-yl)-amine], the inhibition at 10 µM worked out at 41.5%.
For `COc1cc2c(cc1OC)-c1n[nH]c(N3CCc4ccccc43)c1C2` [Compound 566, 3-(2,3-Dihydro-indol-1-yl)-6,7-dimethoxy-2,4-dihydro-indeno[1,2-c]pyrazole], the inhibition at 10 µM was determined as 54%.
As to `COc1cc2c(cc1OC)-c1n[nH]c(N3CCc4cc(Br)ccc43)c1C2` [Compound 567, 3-(5-Bromo-2,3-dihydro-indol-1-yl)-6,7-dimethoxy-2,4-dihydro-indeno[1,2-c]pyrazole], the inhibition at 10 µM was 39.5%.
Take `COc1cc2c(cc1OC)-c1c(c(Nc3cccc(F)c3)nn1CCO)C2` [Compound 572, 2-[3-(3-Fluoro-phenylamino)-6,7-dimethoxy-4H-indeno[1,2-c]pyrazol-1-yl]-ethanol]: the inhibition at 10 µM was found to be 67% and the IC50 is 7.33 µM.
`COc1cc2c(cc1OC)-c1nn(CCO)c(Nc3cccc(F)c3)c1C2` [Compound 573, 2-[3-(3-Fluoro-phenylamino)-6,7-dimethoxy-4H-indeno[1,2-c]pyrazol-2-yl]-ethanol]: the inhibition at 10 µM worked out at 52%.
In the case of `COc1cc2c(c3nc(C)oc13)Cc1c(NCc3ccccc3F)n[nH]c1-2` [Compound 574, (2-Fluoro-benzyl)-(4-methoxy-2-methyl-6,9-dihydro-3-oxa-1,6,7-triaza-cyclopenta[b]-as-indacen-8-yl)-amine], the inhibition at 10 µM was determined as 99% and the IC50 is 0.163 µM.
For `COc1cc2c(cc1OC)-c1n[nH]c(NCc3ccccc3Br)c1C2` [Compound 575, (2-Bromo-benzyl)-(6,7-dimethoxy-2,4-dihydro-indeno[1,2-c]pyrazol-3-yl)-amine], the inhibition at 10 µM came to 99.5% and the IC50 came to 0.00213 µM.
Regarding `COc1cc2c(cc1OC)-c1n[nH]c(Nc3ncc(Br)cc3C)c1C2` [Compound 576, (5-Bromo-3-methyl-pyridin-2-yl)-(6,7-dimethoxy-2,4-dihydro-indeno[1,2-c]pyrazol-3-yl)-amine], the inhibition at 10 µM was 18% and the IC50 is 33.3 µM.
For `COc1cc2c(cc1OC)-c1n[nH]c(Nc3cnccc3C(F)(F)F)c1C2` [Compound 577, (6,7-Dimethoxy-2,4-dihydro-indeno[1,2-c]pyrazol-3-yl)-(4-trifluoromethyl-pyridin-3-yl)-amine] the same measures were 19% and 362 µM.
For the compound `CNC(=O)n1nc2c(c1Nc1cccc(F)c1)Cc1cc(OC)c(OC)cc1-2` [Compound 579, 3-(3-Fluoro-phenylamino)-6,7-dimethoxy-4H-indeno[1,2-c]pyrazole-2-carboxylic acid methylamide], the inhibition at 10 µM came to 28%.
`CNC(=S)n1nc2c(c1Nc1cccc(F)c1)Cc1cc(OC)c(OC)cc1-2` [Compound 580, 3-(3-Fluoro-phenylamino)-6,7-dimethoxy-4H-indeno[1,2-c]pyrazole-2-carbothioic acid methylamide]: the inhibition at 10 µM is 93% and the IC50 turned out to be 0.126 µM.
For `CNC(=S)n1nc(Nc2cccc(F)c2)c2c1-c1cc(OC)c(OC)cc1C2` [Compound 581, 3-(3-Fluoro-phenylamino)-6,7-dimethoxy-4H-indeno[1,2-c]pyrazole-1-carbothioic acid methylamide] the same measures were 90.5% and 1.14 µM.
Take `COc1cc2c(cc1OC)-c1n[nH]c(Nc3ncccc3Br)c1C2` [Compound 582, (3-Bromo-pyridin-2-yl)-(6,7-dimethoxy-2,4-dihydro-indeno[1,2-c]pyrazol-3-yl)-amine]: the inhibition at 10 µM was 82.5% and the IC50 is 1.25 µM.
Regarding `COc1cc2c(cc1OC)-c1n[nH]c(Nc3ccc(Br)cn3)c1C2` [Compound 583, (5-Bromo-pyridin-2-yl)-(6,7-dimethoxy-2,4-dihydro-indeno[1,2-c]pyrazol-3-yl)-amine], the inhibition at 10 µM amounted to 82% and the IC50 was 1.1 µM.
As for `COc1cc2c(cc1OC)-c1n[nH]c(Nc3cccc(OC(C)C)c3)c1C2` [Compound 584, (6,7-Dimethoxy-2,4-dihydro-indeno[1,2-c]pyrazol-3-yl)-(3-isopropoxy-phenyl)-amine], the inhibition at 10 µM came out at 109% and the IC50 turned out to be 0.0111 µM.
On to `COc1cc2c(cc1OC)-c1n[nH]c(Nc3ncccc3C)c1C2` [Compound 587, (6,7-Dimethoxy-2,4-dihydro-indeno[1,2-c]pyrazol-3-yl)-(3-methyl-pyridin-2-yl)-amine], for which the inhibition at 10 µM came to 86% and the IC50 was 1.7 µM.
As for `COc1cc2c(cc1OC)-c1n[nH]c(Nc3cc(C)cc(C)n3)c1C2` [Compound 588, (6,7-Dimethoxy-2,4-dihydro-indeno[1,2-c]pyrazol-3-yl)-(4,6-dimethyl-pyridin-2-yl)-amine], the inhibition at 10 µM turned out to be 103% and the IC50 amounted to 0.556 µM.
With `COc1cc2c(cc1OC)-c1n[nH]c(N(c3cccc(F)c3)[C@@H]3O[C@H](C(=O)O)[C@@H](O)[C@H](O)[C@H]3O)c1C2` [Compound 591, 6-[(6,7-Dimethoxy-2,4-dihydro-indeno[1,2-c]pyrazol-3-yl)-(3-fluoro-phenyl)-amino]-3,4,5-trihydroxy-tetrahydro-pyran-2-carboxylic acid], the inhibition at 10 µM is 96% and the IC50 turned out to be 0.662 µM.
On to `CCOc1cc2c(cc1OCC)-c1n[nH]c(Nc3cccc(F)c3)c1C2` [Compound 594, (6,7-Diethoxy-2,4-dihydro-indeno[1,2-c]pyrazol-3-yl)-(3-fluoro-phenyl)-amine], for which the inhibition at 10 µM amounted to 64% and the IC50 came to 0.0156 µM.
For `CCCCCCCCCCCCCCCNC(=O)n1nc2c(c1Nc1cccc(F)c1)Cc1cc(OC)c(OC)cc1-2` [Compound 598, 3-(3-Fluoro-phenylamino)-6,7-dimethoxy-4H-indeno[1,2-c]pyrazole-2-carboxylic acid pentadecylamide] the same measures were 0% and 98.4 µM.

The values are drawn from US7196110B2, “N-substituted tricyclic 3-aminopyrazoles as inhibitors for the treatment of cell proliferative disorders” (Janssen Phamaceutica N.V., priority 2002, dated 2007).
